According to patent US12414974B2, “Materials and methods for treating cancer” (priority 2017, dated 2025):

Test system: GBM39 cells
Assay: MV growth kinetics (virus production, titration on Vero cells)
Type: cell-based, human
Procedure: MV strains and virus propagation. Generation and characterization of MV strains expressing human iodide symporter (MV-NIS), human carcinoembryonic antigen (MV-CEA) and green fluorescent protein (MV-GFP) has been described elsewhere (see, e.g., Dingli et al. 2004 Blood 103:1641-1646; Peng et al. 2002 Cancer Res 62:4656-4662; Duprex et al. 1999 J Virol 73:9568-9575). Viruses were propagated on Vero cells and viral stocks were prepared by repeated freezing-thawing and stored frozen at −80° C. MV titers were determined in tissue culture infectious doses 50% (TCID50) per ml by titration on Vero cells described elsewhere (see, e.g., Iankov et al. 2009 Mol Ther 17:1395-1403). High grade purified viral stocks from supernatant released viruses were prepared as described elsewhere (see, e.g., Langfield et al. 2011 Methods Mol Biol 737:345-366).
MV growth kinetics. Growth kinetics of MV in primary GBM cells was determined by titration on Vero cells for the cell-associated virus at different time points post infection with MV-NIS. Briefly, the 4×10^5 cells were inoculated at a MOI of 0.1 with MV-NIS and incubated in 6-well cell culture plates (Falcon). […] Wells positive for syncytia were counted at 72 hours and virus titers were calculated as described above. […]

## N#CC[C@H](C1CCCC1)n1cc(-c2ncnc3[nH]ccc23)cn1 [Jakafi, Ruxolitinib]
GBM39, 3 μM for 48 hours prior to infection, MV-NIS MOI 0.1, 96 hours
  increase of MV-NIS virus production vs control: ~1000 fold
GBM39, 3 μM, MV MOI 0.1, virus production 48 hours post-infection
  time of addition still sufficient to restore MV production: up to 12 hours post-infection
